According to patent US20250002473A1, “QUINOXALINE DERIVED SULFONAMIDES WITH EGFR DEGRADATION ACTIVITIES AND THEIR USES THEREOF” (Accutar Biotechnology Inc., priority 2023, published 2025):
Like-named read-outs stand apart in the source and are kept apart here.

Assays:
Type in all cases: cell-based
A431 = experiment: Cell growth inhibition assay (CellTiter-Glo), A431; conditions: Homo sapiens, A-431, 72 h, A431 cells, three days, read-out: A431 GI50
In short: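 This growth inhibition assay reports GI50, the compound concentration producing 50% inhibition of cell growth relative to DMSO. Seeded cells (90 μL medium per well, 96-well Corning 3610 plates, overnight at 37° C.) received 10 μL of compound diluted 1:100 from a 1,000× DMSO stock. Luminescence was measured on Envision (PerkinElmer) and analyzed in GraphPad Prism 9.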

NCI-H2073 = experiment: Cell growth inhibition assay (CellTiter-Glo), NCI-H2073; conditions: 72 h; Table 8; NCI-H2073 cells, three days
Method: Cells were seeded in a 96-well plate (Corning 3610) with 90 μL of culture medium per well, and plates were incubated at 37° C. overnight. A 1,000× DMSO stock solution of the desired compound was prepared the following day. A compound dilution plate was prepared by diluting the stock solution 1:100 in the corresponding cell culture medium, 10 μL of the diluted compound solution was added to each 96-well plate well containing the seeded cells. […] The content of the wells was mixed by shaking continuously for 10 min, and luminescence was measured using Envision (PerkinElmer). The data were analyzed with GraphPad Prism 9 (see FIG. 50).
(§1) Table 6, Table 7, and Table 8 list the cell growth inhibition results, where Gls0 represents the compound concentration to cause 50% cell growth inhibition in comparison with DMSO.

HCC827 = experiment: Cell growth inhibition assay (CellTiter-Glo), HCC827; conditions: Homo sapiens, 72 h, Table 8, HCC827 cells, three days
Method: (§2) HCC827_LTC and HCC827_DTC cell lines were generated by first transducing HCC827 cells (ATCC) with lentiviral particles expressing codon-optimized human EGFR L858R/T790M/C797S (LTC) mutant or Del19/T790M/C797S (DTC) mutant, and then selecting under 5 μg/ml puromycin treatment for a week. The endogenous EGFR alleles were subsequently abolished using the Alt-R™ CRISPR-Cas9 technology (Integrated DNA Technologies). Single clones of HCC827_LTC and HCC827_DTC were selected and validated for endogenous EGFR knockout using Sanger sequencing.
(§3) Cells were seeded in a 96-well plate (Corning 3610) with 90 μL of culture medium per well, and plates were incubated at 37° C. overnight. A 1,000× DMSO stock solution of the desired compound was prepared the following day. A compound dilution plate was prepared by diluting the stock solution 1:100 in the corresponding cell culture medium, 10 μL of the diluted compound solution was added to each 96-well plate well containing the seeded cells. Then, the cells were cultured at 37° C. for three days following compound treatment, 100 μL of CellTiter-Glo reagents (Promega G7573) was added to each well of the 96-well plate. The content of the wells was mixed by shaking continuously for 10 min, and luminescence was measured using Envision (PerkinElmer). The data were analyzed with GraphPad Prism 9 (see FIG. 50).
as §1

HCC827_LTC = experiment: Cell growth inhibition assay (CellTiter-Glo), HCC827_LTC; conditions: 72 h; Table 8; HCC827 expressing human EGFR L858R/T790M/C797S, endogenous EGFR knockout, three days
Method: as §2, §3, §1

HCC827_DTC = experiment: Cell growth inhibition assay (CellTiter-Glo), HCC827_DTC; conditions: 72 h; Table 8; HCC827 expressing human EGFR Del19/T790M/C797S, endogenous EGFR knockout, three days
Method: as §2, §3, §1

[1] = biological target: T1, BaF3_ASV (EGFR_A776inASV) (Homo sapiens, UniProt P00533, DUP767-769); experiment: EGFR degradation assay (western blot), BaF3_ASV cells; conditions: BaF3_ASV cells, compounds 24 h, western blot; read-out: BaF3_ASV DC50
T1 construct: expressed in transfected cells; host or cells: Ba/F3 (engineered)
T1 sequence (P00533 with tags, fused parts or gaps DUP767-769): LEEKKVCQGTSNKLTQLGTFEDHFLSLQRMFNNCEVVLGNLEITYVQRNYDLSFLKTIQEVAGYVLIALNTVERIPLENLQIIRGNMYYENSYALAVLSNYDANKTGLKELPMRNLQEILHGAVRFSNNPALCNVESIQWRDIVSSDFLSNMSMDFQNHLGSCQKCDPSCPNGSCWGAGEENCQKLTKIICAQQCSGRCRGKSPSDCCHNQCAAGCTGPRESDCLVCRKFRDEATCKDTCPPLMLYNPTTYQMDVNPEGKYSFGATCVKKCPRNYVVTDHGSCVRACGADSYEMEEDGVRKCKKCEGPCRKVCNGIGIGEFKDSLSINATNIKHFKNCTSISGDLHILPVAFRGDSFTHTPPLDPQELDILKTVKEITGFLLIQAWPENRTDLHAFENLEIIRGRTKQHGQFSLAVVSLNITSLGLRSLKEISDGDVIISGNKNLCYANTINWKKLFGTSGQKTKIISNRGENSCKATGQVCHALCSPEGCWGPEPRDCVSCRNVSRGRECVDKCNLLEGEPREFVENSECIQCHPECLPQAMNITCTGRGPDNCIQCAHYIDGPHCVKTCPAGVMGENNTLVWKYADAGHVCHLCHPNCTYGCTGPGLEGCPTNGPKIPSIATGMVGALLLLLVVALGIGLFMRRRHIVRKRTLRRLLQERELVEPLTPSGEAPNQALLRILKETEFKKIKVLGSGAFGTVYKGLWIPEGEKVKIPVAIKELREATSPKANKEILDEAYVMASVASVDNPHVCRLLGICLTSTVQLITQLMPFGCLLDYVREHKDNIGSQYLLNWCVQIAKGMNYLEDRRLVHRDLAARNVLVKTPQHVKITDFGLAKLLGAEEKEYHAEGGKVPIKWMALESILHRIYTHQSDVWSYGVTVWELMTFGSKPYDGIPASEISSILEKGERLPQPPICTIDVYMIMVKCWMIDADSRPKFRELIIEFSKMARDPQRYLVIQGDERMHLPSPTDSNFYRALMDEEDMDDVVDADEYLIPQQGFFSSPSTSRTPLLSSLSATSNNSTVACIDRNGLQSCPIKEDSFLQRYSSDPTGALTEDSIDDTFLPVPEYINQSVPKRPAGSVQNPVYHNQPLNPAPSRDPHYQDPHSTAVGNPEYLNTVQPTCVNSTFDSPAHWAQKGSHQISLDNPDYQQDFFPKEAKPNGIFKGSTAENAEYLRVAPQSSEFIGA
In short: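 Cells seeded overnight, then exposed to compounds for 24 h; lysates run on western blot, EGFR probed with tubulin loading control and fluorescent secondary detection. DC50 = concentration giving 50% EGFR degradation.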

BaF3_DTC = experiment: Cell growth inhibition assay (CellTiter-Glo), BaF3_DTC; conditions: 72 h; Table 6; BaF3_DTC cells, three days, CellTiter-Glo; read-out: BaF3_DTC GI50
BaF3_ASV = experiment: Cell growth inhibition assay (CellTiter-Glo), BaF3_ASV; conditions: 72 h; Table 6; BaF3_ASV cells, three days, CellTiter-Glo; read-out: BaF3_ASV GI50

SMILES	GI50 (A431; Table 8) [nM]	GI50 (NCI-H2073) [nM]	GI50 (HCC827) [nM]	GI50 (HCC827_LTC) [nM]	GI50 (HCC827_DTC) [nM]	DC50 [1] [nM]	GI50 (A431; Table 6, CellTiter-Glo) [nM]	GI50 (BaF3_DTC) [nM]	GI50 (BaF3_ASV) [nM]
COc1cc(N2CCN(C(=O)CN3CCC(c4ccc(NC5CCC(=O)NC5=O)cc4)CC3)CC2)c(-c2cnn(C)c2)cc1Nc1ncc(Br)c(Nc2ccc3nccnc3c2NS(C)(=O)=O)n1 (stereo not shown) [Compound 79, N-(6-((5-bromo-2-((4-(4-(2-(4-(4-((2,6-dioxopiperidin-3-yl)amino)phenyl)piperidin-1-yl)acetyl)piperazin-1-yl)-2-methoxy-5-(1-methyl-1H-pyrazol-4-yl)phenyl)amino)pyrimidin-4-yl)amino)quinoxalin-5-yl)methanesulfonamide]	164	654	0.22	0.77	2.6	–	–	–	–
COc1cc(N2CCN(C(=O)CN3CCN(c4ccc(NC5CCC(=O)NC5=O)cc4)CC3)CC2)c(-c2cnn(C)c2)cc1Nc1ncc(Br)c(Nc2ccc3nccnc3c2NS(C)(=O)=O)n1 (stereo not shown) [Compound 80, N-(6-((5-bromo-2-((4-(4-(2-(4-(4-((2,6-dioxopiperidin-3-yl)amino)phenyl)piperazin-1-yl)acetyl)piperazin-1-yl)-2-methoxy-5-(1-methyl-1H-pyrazol-4-yl)phenyl)amino)pyrimidin-4-yl)amino)quinoxalin-5-yl)methanesulfonamide]	389	721	6.81	11	79.4	–	–	–	–
COc1cc(N2CCC(N3CCN(CC4CCN(c5ccc6c(c5)C(=O)N(C5CCC(=O)NC5=O)C6=O)CC4)CC3)CC2)c(-c2cnn(C)c2)cc1Nc1ncc(Br)c(Nc2ccc3nccnc3c2NS(C)(=O)=O)n1 (stereo not shown) [Compound 85, N-(6-((5-bromo-2-((4-(4-(4-((1-(2-(2,6-dioxopiperidin-3-yl)-1,3-dioxoisoindolin-5-yl)piperidin-4-yl)methyl)piperazin-1-yl)piperidin-1-yl)-2-methoxy-5-(1-methyl-1H-pyrazol-4-yl)phenyl)amino)pyrimidin-4-yl)amino)quinoxalin-5-yl)methanesulfonamide]	> 3000	> 3000	2.72	3.57	7.7	–	–	–	–
COc1cc(N2CCC(N3CCN(CCc4ccc(NC5CCC(=O)NC5=O)cc4)CC3)CC2)c(-c2cnn(C)c2)cc1Nc1ncc(Br)c(Nc2ccc3nccnc3c2NS(C)(=O)=O)n1 (stereo not shown) [Compound 78, N-(6-((5-bromo-2-((4-(4-(4-(4-((2,6-dioxopiperidin-3-yl)amino)phenethyl)piperazin-1-yl)piperidin-1-yl)-2-methoxy-5-(1-methyl-1H-pyrazol-4-yl)phenyl)amino)pyrimidin-4-yl)amino)quinoxalin-5-yl)methanesulfonamide]	436	403	1	1.81	1.96	–	–	–	–
CCn1c(=O)n(C2CCC(=O)NC2=O)c2cccc(CCN3CCN(C4CCN(c5cc(OC)c(Nc6ncc(Br)c(Nc7ccc8nccnc8c7NS(C)(=O)=O)n6)cc5-c5cnn(C)c5)CC4)CC3)c21 (stereo not shown) [Compound 28, N-(6-((5-bromo-2-((4-(4-(4-(2-(1-(2,6-dioxopiperidin-3-yl)-3-ethyl-2-oxo-2,3-dihydro-1H-benzo[d]imidazol-4-yl)ethyl)piperazin-1-yl)piperidin-1-yl)-2-methoxy-5-(1-methyl-1H-pyrazol-4-yl)phenyl)amino)pyrimidin-4-yl)amino)quinoxalin-5-yl)methanesulfonamide]	150	340	0.52	1.03	4.42	93.6	271	15.8	56.3
COc1cc(N2CCC(N3CCN(CCc4cc(F)c(C5CCC(=O)NC5=O)c(F)c4)CC3)CC2)c(-c2cnn(C)c2)cc1Nc1ncc(Br)c(Nc2ccc3nccnc3c2NS(C)(=O)=O)n1 (stereo not shown) [Compound 70, N-(6-((5-bromo-2-((4-(4-(4-(4-(2,6-dioxopiperidin-3-yl)-3,5-difluorophenethyl)piperazin-1-yl)piperidin-1-yl)-2-methoxy-5-(1-methyl-1H-pyrazol-4-yl)phenyl)amino)pyrimidin-4-yl)amino)quinoxalin-5-yl)methanesulfonamide]	160	134	0.96	0.45	1.53	–	–	–	–
COc1cc(N2CCN(CC3CCN(c4ccc5c(c4)C(=O)N(C4CCC(=O)NC4=O)C5=O)CC3)CC2)c(-c2cnn(C)c2)cc1Nc1ncc(Br)c(Nc2ccc3nccnc3c2NS(C)(=O)=O)n1 (stereo not shown) [Compound 84, N-(6-((5-bromo-2-((4-(4-((1-(2-(2,6-dioxopiperidin-3-yl)-1,3-dioxoisoindolin-5-yl)piperidin-4-yl)methyl)piperazin-1-yl)-2-methoxy-5-(1-methyl-1H-pyrazol-4-yl)phenyl)amino)pyrimidin-4-yl)amino)quinoxalin-5-yl)methanesulfonamide]	> 3000	> 3000	1.18	3.06	10.7	–	–	–	–
COc1cc(N2CCC(N3CCN(c4ccc5c(c4)C(=O)N(C4CCC(=O)NC4=O)C5=O)CC3)CC2)c(-c2cnn(C)c2)cc1Nc1ncc(Br)c(Nc2ccc3nccnc3c2NS(C)(=O)=O)n1 (stereo not shown) [Compound 82, N-(6-((5-bromo-2-((4-(4-(4-(2-(2,6-dioxopiperidin-3-yl)-1,3-dioxoisoindolin-5-yl)piperazin-1-yl)piperidin-1-yl)-2-methoxy-5-(1-methyl-1H-pyrazol-4-yl)phenyl)amino)pyrimidin-4-yl)amino)quinoxalin-5-yl)methanesulfonamide]	> 3000	> 3000	2.82	9.38	30.8	–	–	–	–
COc1cc(N2CCC(CN3CCN(c4ccc5c(c4)C(=O)N(C4CCC(=O)NC4=O)C5=O)CC3)CC2)c(-c2cnn(C)c2)cc1Nc1ncc(Br)c(Nc2ccc3nccnc3c2NS(C)(=O)=O)n1 (stereo not shown) [Compound 83, N-(6-((5-bromo-2-((4-(4-((4-(2-(2,6-dioxopiperidin-3-yl)-1,3-dioxoisoindolin-5-yl)piperazin-1-yl)methyl)piperidin-1-yl)-2-methoxy-5-(1-methyl-1H-pyrazol-4-yl)phenyl)amino)pyrimidin-4-yl)amino)quinoxalin-5-yl)methanesulfonamide]	> 3000	> 3000	5.51	8.58	19.4	–	–	–	–
